In the NIST ThermoML archive (doi:10.1016/j.fluid.2016.03.013):

Experiment: xn = mol fraction of the nth substance listed
Settings: for surface tension liquid-gas / mass density: draining crucible method; for viscosity / mass density: 101 kPa, Liquid; for viscosity: Draining crucible

[Al] [aluminum] + [Zn]
Settings | mass density, x1 = 0.25 [kg/m3] | mass density, x1 = 0.51 [kg/m3] | mass density, x1 = 0.83 [kg/m3] | surface tension liquid-gas, x1 = 0.25 [mN/m] | surface tension liquid-gas, x1 = 0.51 [mN/m] | surface tension liquid-gas, x1 = 0.83 [mN/m] | viscosity, x1 = 0.25 [mPa·s] | viscosity, x1 = 0.51 [mPa·s] | viscosity, x1 = 0.83 [mPa·s]
873 K | 5201 | 4204 | – | 802.1 | 830.8 | – | 1.917 | 1.633 | –
923 K | 5139 | 4138 | 2720 | 789.4 | 819.6 | 858.7 | 1.791 | 1.542 | 1.356
973 K | 5089 | 4089 | 2680 | 779.3 | 806.5 | 848.1 | 1.696 | 1.448 | 1.271
1023 K | 5011 | 3995 | 2530 | 763.8 | 795.8 | 836.9 | 1.643 | 1.405 | 1.222
